# Data from US8680113B2, “BMI-1 protein expression modulators” (PTC Therapeutics, Inc., priority 2008, dated 2014).
# Tests used:
# Bmi-1 [1] = experiment: Cell Model Assay: Bmi-1 expression in K562; format: cell-based; conditions: K562 (chronic myelogenous leukemia)
# Procedure: (§1) Using assay conditions known to those skilled in the art, the ability of the compounds described herein to reduce Bmi-1 expression in HT1080 (fibrosarcoma), U87-MG (glioblastoma), T98G (glioblastoma), K562 (chronic myelogenous leukemia) and KG1 (acute myelogenous leukemia) cell lines was tested (at test compound concentrations calculated from the ELISA assay data shown in Example 1) compared to puromycin as a control to provide the EC50 values shown in Table 2. The term “ND” means that data was not determined.
# Bmi-1 [2] = experiment: Sandwich ELISA Assay (Bmi-1 ELISA in HT-1080 cells); format: cell-based, human
# How it was run: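 HT-1080 cells (8000/well) were treated with compounds in 0.5% final DMSO for 40-48 h at 37°C and then lysed. Bmi-1 in lysates was measured by sandwich ELISA: overnight capture at 4°C on mouse monoclonal, rabbit anti-Bmi-1 detection, HRP anti-rabbit, TMB. OD450 was read with an OD570 reference against a recombinant GST-Bmi-1 standard curve (0-8000 pg/mL).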
# Bmi-1 [3] = experiment: Cell Model Assay: Bmi-1 expression in KG1; format: cell-based; conditions: KG1 (acute myelogenous leukemia)
# Procedure: as §1
# MM cell line = experiment: Multiple Myeloma Assay; format: cell-based; conditions: 72 hrs in culture
# MCL-Rec1 = experiment: Mantle Cell Lymphoma Assay: cytotoxicity, Rec-1; format: cell-based; conditions: 72 hrs in culture
# From the text: (§2) MCL cell lines Jeko, Mino, and Rec-1 were provided by American Type Culture Collection: The Bioresource Center (Manassas, Va.). […] Carlsbad, Calif.) in T-75 culture flasks. Cell concentration was maintained between 2 to 3×10^5 cells/mL. Early passage cells (passages 2-4) were used for all experiments. Ficoll-Histopaque density sedimentation (Sigma Aldrich) was used for separation of debris and purification of cell lines prior to experiments. […] The cytotoxic effect of test compounds on the MCL-cell lines was assessed by measuring cell concentration and cell viability using a Beckman Coulter Vi-Cell Counter. Controls and treated cells were harvested and counted at day 3.
# MCL-Jeko = experiment: Mantle Cell Lymphoma Assay: cytotoxicity, Jeko; format: cell-based; conditions: 72 hrs in culture
# From the text: as §2
# MCL-Mino = experiment: Mantle Cell Lymphoma Assay: cytotoxicity, Mino; format: cell-based; conditions: 72 hrs in culture
# From the text: as §2
# Bmi-1 [4] = experiment: Cell Model Assay: Bmi-1 expression in U87-MG; format: cell-based; conditions: U87-MG (glioblastoma)
# Procedure: as §1
# Bmi-1 [5] = experiment: Cell Model Assay: Bmi-1 expression in HT1080; format: cell-based, human; conditions: HT1080 (fibrosarcoma)
# Procedure: as §1
# Bmi-1 [6] = experiment: Cell Model Assay: Bmi-1 expression in T98G; format: cell-based; conditions: T98G (glioblastoma)
# Procedure: as §1
smiles,measurement,setting,value
"Cc1cc(Br)c(Nc2nc(-c3cnc4ccc(Cl)cn34)cs2)c(Br)c1 [Cpd 25, 4-(6-chloroimidazo[1,2-a]pyridine-3-yl)-N-(2,6-dibromo-4-methylphenyl)thiazol-2-amine]",EC50,Bmi-1 [1],100 nM
same,IC50,Bmi-1 [2],< 500 nM
same,EC50,Bmi-1 [3],> 3000 nM
"COCCOc1cc(Br)c(Nc2nc(-c3cnc4ccc(Cl)cn34)cs2)c(Br)c1 [Cpd 134, 4-(6-chloroimidazo[1,2-a]pyridin-3-yl)-N-[2,6-dibromo-4-(2-methoxyethoxy)phenyl]-1,3-thiazol-2-amine]","Cell Concentration, MM cell line",MM cell line; dose 0.004 μM,1.36 ± 0.01 ×10^6
same,viability at 0.004 µM,MM cell line; dose 0.004 μM,91.17 ± 0.43%
same,"Cell Concentration, MM cell line",MM cell line; dose 0.037 μM,1.33 ± 0.01 ×10^6
same,viability at 0.037 µM,MM cell line; dose 0.037 μM,90.27 ± 0.1%
same,"Cell Concentration, MM cell line",MM cell line; dose 0.11 μM,1.28 ± 0.01 ×10^6
same,viability at 0.11 µM,MM cell line; dose 0.11 μM,87.93 ± 0.5%
same,"Cell Concentration, MM cell line",MM cell line; dose 0.33 μM,1.18 ± 0.04 ×10^6
same,viability at 0.33 µM,MM cell line; dose 0.33 μM,86.1 ± 0.31%
same,"Cell Concentration, MM cell line",MM cell line; dose 1 μM,1.06 ± 0.01 ×10^6
same,viability at 1 µM,MM cell line; dose 1 μM,83.47 ± 0.46%
same,"Cell Concentration, MM cell line",MM cell line; dose 3 μM,0.75 ± 0.03 ×10^6
same,viability at 3 µM,MM cell line; dose 3 μM,76.5 ± 1.48%
same,viability at 0.004 µM,"MCL-Rec1; Homo sapiens, Rec1, dose 0.004 μM, read-out: Cell Viability, MCL-Rec1",89.43 ± 0.18%
same,viability at 0.037 µM,"MCL-Rec1; Homo sapiens, Rec1, dose 0.037 μM, read-out: Cell Viability, MCL-Rec1",88.9 ± 1%
same,viability at 0.11 µM,"MCL-Rec1; Homo sapiens, Rec1, dose 0.11 μM, read-out: Cell Viability, MCL-Rec1",90.2 ± 0.63%
same,viability at 0.33 µM,"MCL-Rec1; Homo sapiens, Rec1, dose 0.33 μM, read-out: Cell Viability, MCL-Rec1",88.63 ± 0.24%
same,viability at 1 µM,"MCL-Rec1; Homo sapiens, Rec1, dose 1 μM, read-out: Cell Viability, MCL-Rec1",88.43 ± 0.48%
same,viability at 3 µM,"MCL-Rec1; Homo sapiens, Rec1, dose 3 μM, read-out: Cell Viability, MCL-Rec1",86.67 ± 0.84%
same,"Cell Concentration, MCL-Rec1",MCL-Rec1; dose 0.004 μM,0.84 ± 0.02 ×10^6
same,"Cell Concentration, MCL-Rec1",MCL-Rec1; dose 0.037 μM,0.86 ± 0.02 ×10^6
same,"Cell Concentration, MCL-Rec1",MCL-Rec1; dose 0.11 μM,0.90 ± 0.01 ×10^6
same,"Cell Concentration, MCL-Rec1",MCL-Rec1; dose 0.33 μM,0.85 ± 0.02 ×10^6
same,"Cell Concentration, MCL-Rec1",MCL-Rec1; dose 1 μM,0.78 ± 0.03 ×10^6
same,"Cell Concentration, MCL-Rec1",MCL-Rec1; dose 3 μM,0.73 ± 0.02 ×10^6
same,"Cell Concentration, MCL-Jeko",MCL-Jeko; dose 0.004 μM,2.11 ± 0.04 ×10^6
same,viability at 0.004 µM,"MCL-Jeko; dose 0.004 μM, read-out: Cell Viability, MCL-Jeko",94.1 ± 0.23%
same,"Cell Concentration, MCL-Jeko",MCL-Jeko; dose 0.037 μM,2.11 ± 0.03 ×10^6
same,viability at 0.037 µM,"MCL-Jeko; dose 0.037 μM, read-out: Cell Viability, MCL-Jeko",94.37 ± 0.18%
same,"Cell Concentration, MCL-Jeko",MCL-Jeko; dose 0.11 μM,1.97 ± 0.11 ×10^6
same,viability at 0.11 µM,"MCL-Jeko; dose 0.11 μM, read-out: Cell Viability, MCL-Jeko",93.77 ± 0.15%
same,"Cell Concentration, MCL-Jeko",MCL-Jeko; dose 0.33 μM,1.95 ± 0.02 ×10^6
same,viability at 0.33 µM,"MCL-Jeko; dose 0.33 μM, read-out: Cell Viability, MCL-Jeko",93.67 ± 0.13%
same,"Cell Concentration, MCL-Jeko",MCL-Jeko; dose 1 μM,1.82 ± 0.05 ×10^6
same,viability at 1 µM,"MCL-Jeko; dose 1 μM, read-out: Cell Viability, MCL-Jeko",93.87 ± 0.06%
same,"Cell Concentration, MCL-Jeko",MCL-Jeko; dose 3 μM,1.81 ± 0.02 ×10^6
same,viability at 3 µM,"MCL-Jeko; dose 3 μM, read-out: Cell Viability, MCL-Jeko",92.4 ± 0.22%
same,viability at 0.004 µM,"MCL-Mino; Homo sapiens, MINO, dose 0.004 μM, read-out: Cell Viability, MCL-Mino",84.8 ± 0.7%
same,viability at 0.037 µM,"MCL-Mino; Homo sapiens, MINO, dose 0.037 μM, read-out: Cell Viability, MCL-Mino",86.2 ± 0.8%
same,viability at 0.11 µM,"MCL-Mino; Homo sapiens, MINO, dose 0.11 μM, read-out: Cell Viability, MCL-Mino",84.6 ± 0.5%
same,viability at 0.33 µM,"MCL-Mino; Homo sapiens, MINO, dose 0.33 μM, read-out: Cell Viability, MCL-Mino",83.8 ± 0.2%
same,viability at 1 µM,"MCL-Mino; Homo sapiens, MINO, dose 1 μM, read-out: Cell Viability, MCL-Mino",81.4 ± 0.8%
same,viability at 3 µM,"MCL-Mino; Homo sapiens, MINO, dose 3 μM, read-out: Cell Viability, MCL-Mino",79 ± 0.8%
same,"Cell Concentration, MCL-Mino",MCL-Mino; dose 0.004 μM,0.63 ± 0.01 ×10^6
same,"Cell Concentration, MCL-Mino",MCL-Mino; dose 0.037 μM,0.65 ± 0.01 ×10^6
same,"Cell Concentration, MCL-Mino",MCL-Mino; dose 0.11 μM,0.65 ± 0.01 ×10^6
same,"Cell Concentration, MCL-Mino",MCL-Mino; dose 0.33 μM,0.59 ± 0.01 ×10^6
same,"Cell Concentration, MCL-Mino",MCL-Mino; dose 1 μM,0.56 ± 0.02 ×10^6
same,"Cell Concentration, MCL-Mino",MCL-Mino; dose 3 μM,0.47 ± 0.02 ×10^6
same,IC50,Bmi-1 [2],< 500 nM
"Cc1nc2ncccn2c1-c1csc(Nc2ccc(N(C)C)cc2)n1 [Cpd 12, N,N-dimethyl-N′-(4-(2-methylimidazo[1,2-a]pyrimidin-3-yl)thiazol-2-yl)benzene-1,4-diamine]",EC50,Bmi-1 [4],110 nM
same,EC50,Bmi-1 [5],39 nM
same,EC50,Bmi-1 [1],10 nM
same,EC50,Bmi-1 [6],< 4 nM
same,IC50,Bmi-1 [2],< 500 nM
same,EC50,Bmi-1 [3],216 nM
"COc1cc(Cl)c(Nc2nc(-c3cnc4ccc(Cl)cn34)cs2)c(Cl)c1 [Cpd 26, 4-(6-chloroimidazo[1,2-a]pyridine-3-yl)-N-(2,6-dichloro-4-methoxyphenyl)thiazol-2-amine]",EC50,Bmi-1 [1],234 nM
same,IC50,Bmi-1 [2],1000 to 3000 nM
same,EC50,Bmi-1 [3],317 nM
"Cc1nc2ncccn2c1-c1csc(Nc2ccc(I)cc2)n1 [Cpd 39, N-(4-iodophenyl)-4-(2-methylimidazo[1,2-a]pyrimidin-3-yl)-1,3-thiazol-2-amine]",EC50,Bmi-1 [4],< 4 nM
same,EC50,Bmi-1 [5],5 nM
same,EC50,Bmi-1 [6],< 4 nM
same,IC50,Bmi-1 [2],< 500 nM
